Laboratory results published in patent US20220002663A1, “SELECTIVE SALMONELLA OR E. COLI CULTIVATION METHOD, COMPOSITIONS AND USES” (SOLUS SCIENTIFIC SOLUTIONS LTD, priority 2018, published 2022).

Tests used:
Format in all cases: cell-based
[1] = test system: Salmonella; assay: Inclusivity: culture of pure Salmonella serovars in BPW with selective agent or supplement, ELISA detection (FIG. 4, FIG. 6); conditions: 5 mg/L 4PYcq; 20 hour culture; same inoculums of pure Salmonella cultures
Source text: FIG. 4 illustrates inclusivity study data where multiple Salmonella serovars were artificially inoculated into either Buffered Peptone Water (BPW) on its own, or BPW enriched with either a selective cefsulodin, novobiocin, brilliant green lyophilised supplement run in the absence or presence of an oatmeal food matrix; or a selective cefsulodin, novobiocin, 4PYcq lyophilised supplement run in the absence of an oatmeal food matrix.
FIG. 6 illustrates inclusivity study data where multiple Salmonella serovars were artificially inoculated into BPW enriched with a selective cefsulodin, novobiocin, 4PYcq lyophilised supplement at low levels.

[2] = test system: competing microflora; assay: Suppression of competing microflora in cultures of sample types; conditions: 5 mg/L; range of sample types, including dairy and probiotic foods
[3] = test system: Salmonella; assay: Recovery and detection of Salmonella from spices, herbs and flavourings, single step culture (FIGS. 9-13); conditions: spices/flavourings from the allium family; FIG. 13
Source text: This was at fractional inoculation level (2-8 cfu). Accordingly a method with the ‘Spice neutraliser’ supplement is capable of detecting Salmonella from spice/herb/flavouring samples, even when the Salmonella is present at fractional levels.
This was at a high inoculation level (40-92 cfu).
The data provided in FIGS. 9A and 9B are derived from samples that were inoculated with a relatively high level of Salmonella (FIG. 9A—77-114cfu; FIG. 9B—38 cfu).
FIG. 10 provides data derived from fractional inoculation levels (2-8 cfu). In this instance the cells are cultured in the 4PYcq/Cefsulodin/Novobiocin supplement at half the concentration of that used previously, i.e. at a working concentration of 2.5 mg/L 4PYcq, 4 mg/L Cefsulodin and 5 mg/L Novobiocin.

CC(C)(C)c1cc(/C=N/N=C(\N)c2ccncc2)c(O)c(C(C)(C)C)c1 [4PYcq]
identification of Salmonella by ELISA after culture [1]: positive identification of the presence of Salmonella | suppression of competing microflora [2]: sufficient suppression of competing microflora

O=S([O-])[O-].[K+].[K+] [potassium salt component, potassium sulphite]
recovery of Salmonella [3]: sufficient for recovery of Salmonella
